The values below are quoted from earlier work in patent US10744098B2, “Spray-dried solid-in-oil-in-water dispersions for inhalation of active pharmaceutical ingredients” (Novartis AG, priority 2014, dated 2020).

SMILES strings stand for the structures.

This data set addresses β2-adrenoceptor (Homo sapiens, UniProt P07550).

β2-adrenoceptor, sequence (P07550 whole entry, species assumed): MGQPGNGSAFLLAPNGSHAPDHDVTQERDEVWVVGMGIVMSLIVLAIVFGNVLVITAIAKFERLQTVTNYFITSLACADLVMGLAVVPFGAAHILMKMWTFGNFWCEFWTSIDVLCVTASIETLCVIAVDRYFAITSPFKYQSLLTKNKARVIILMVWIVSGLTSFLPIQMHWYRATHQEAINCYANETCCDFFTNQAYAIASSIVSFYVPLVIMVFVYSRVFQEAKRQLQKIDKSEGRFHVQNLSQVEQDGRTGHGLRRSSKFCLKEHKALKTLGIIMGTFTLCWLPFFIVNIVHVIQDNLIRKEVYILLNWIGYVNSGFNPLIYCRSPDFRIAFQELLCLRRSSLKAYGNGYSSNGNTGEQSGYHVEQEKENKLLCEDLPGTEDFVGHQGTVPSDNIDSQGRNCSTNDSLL

Take `CCc1cc2c(cc1CC)CC(NC[C@H](O)c1ccc(O)c3[nH]c(=O)ccc13)C2` [indacaterol, (R)-5-[2-(5,6-diethyl-indan-2-ylamino)-1-hydroxyethyl]-8-hydroxy-1H-quinolin-2-one]: the duration of action entry was “over 24 hours” and the onset of action result is recorded as “about 10 minutes”.
